In patent US20230406885A1, “CYCLIC PEPTIDES FOR TRAPPING INTERLEUKIN-1 BETA” (MERCK SHARP & DOHME LLC, priority 2022, published 2023):
Where a SMILES comes first, the peptide text is derived from it. [ ]: non-standard residue; d: D form. Phe(4-(trans-4-COOH-cHex)) = N[C@@H](Cc1ccc([C@H]2CC[C@H](C(=O)O)CC2)cc1)C(=O)O; Trp(4-Cl)(βS-Me) = C[C@@H](c1c[nH]c2cccc(Cl)c12)[C@H](N)C(=O)O; Trp(βS-Me,4-F) = C[C@@H](c1c[nH]c2cccc(F)c12)[C@H](N)C(=O)O; Bip(4'-COOH) = N[C@@H](Cc1ccc(-c2ccc(C(=O)O)cc2)cc1)C(=O)O; 1Nal(3S-Me) = C[C@@H](c1cccc2ccccc12)[C@H](N)C(=O)O; Ala(indolin-1-yl) = N[C@@H](CN1CCc2ccccc21)C(=O)O; Phe(3-Ph) = N[C@@H](Cc1cccc(-c2ccccc2)c1)C(=O)O; Phe(4-COOH) = N[C@@H](Cc1ccc(C(=O)O)cc1)C(=O)O; Trp(6-F) = N[C@@H](Cc1c[nH]c2cc(F)ccc12)C(=O)O; h3Pal(5-CN) = N#Cc1cncc(CC[C@H](N)C(=O)O)c1; Phe(4-NH2) = Nc1ccc(C[C@H](N)C(=O)O)cc1; Pro(4R-NH2) = N[C@H]1CN[C@H](C(=O)O)C1; 1Nal = N[C@@H](Cc1cccc2ccccc12)C(=O)O; AEF = NCCOc1ccc(C[C@H](N)C(=O)O)cc1; hTyr = N[C@@H](CCc1ccc(O)cc1)C(=O)O; hCha = N[C@@H](CCC1CCCCC1)C(=O)O; 4Pal = N[C@@H](Cc1ccncc1)C(=O)O; Aad = N[C@@H](CCCC(=O)O)C(=O)O; dDab = NCC[C@@H](N)C(=O)O; Orn = NCCC[C@H](N)C(=O)O; dNMeA = CN[C@H](C)C(=O)O; Dab = NCC[C@H](N)C(=O)O; Aib = CC(C)(N)C(=O)O

target: T1, Recombinant human IL-1β (Homo sapiens, UniProt P01584); assay: IL-6 assay in MRC5 cells: inhibition of IL-1β induced IL-6 secretion (AlphaLISA); format: cell-based; conditions: inhibition of IL-1β induced IL-6 secretion in MRC5 cells; IL-1β pre-incubated 1 hour with compound; read-out: MRC5 IC50
T1 construct: purchased BioLegend 579404
How it was run: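 IL-1β at 2×EC80 in seeding medium (EMEM, 0.025% BSA) preincubated 1 h at ambient temperature with compound, then 3000 MRC5 cells/well added and incubated overnight at 37 °C, 5% CO2. IL-6 in conditioned medium quantified by AlphaLISA; IC50 from 4-parameter logistic fit.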

T1 sequence (P01584 117-269): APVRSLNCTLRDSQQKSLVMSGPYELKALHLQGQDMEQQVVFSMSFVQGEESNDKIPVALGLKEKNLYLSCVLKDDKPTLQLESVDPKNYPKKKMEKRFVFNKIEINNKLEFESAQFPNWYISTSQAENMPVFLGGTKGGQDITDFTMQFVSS

Question: With `CC(C)C[C@@H]1NC(=O)[C@H](CCCC(N)=O)NC(=O)[C@H](Cc2ccc(-c3ccc(C(=O)O)cc3)cc2)NC(=O)CNC(=O)[C@@H](C)N(C)C(=O)[C@H](CC(=O)O)NC(=O)[C@H]([C@@H](C)c2c[nH]c3cccc(F)c23)NC(=O)[C@@H]2C[C@@H](N)CN2C(=O)CNC(=O)[C@H](Cc2ccc(C(=O)O)cc2)NC(=O)[C@H](Cc2c[nH]c3ccccc23)NC(=O)[C@H](Cc2ccc(-c3ccc(C(=O)O)cc3)cc2)NC(=O)[C@H](CCc2ccc(O)cc2)NC(=O)[C@@H](C)NC1=O` [Example 63] (cyclo([Bip(4'-COOH)]W[Phe(4-COOH)]G[Pro(4R-NH2)][Trp(βS-Me,4-F)]D[dNMeA]G[Bip(4'-COOH)][Aad](NH2)L[dA][hTyr])) as the compound, how does the IC50 read?
Answer: The IC50 was 0.0629 nM.

Question: With `CC(=O)NCCOc1ccc(C[C@@H]2NC(=O)[C@H](CCc3ccc(O)cc3)NC(=O)C(C)(C)NC(=O)[C@H](CCN)NC(=O)[C@H](Cc3cccc4ccccc34)NC(=O)[C@H](Cc3ccc(-c4ccc(C(=O)O)cc4)cc3)NC(=O)CNC(=O)[C@@H](C)N(C)C(=O)[C@H](CC(=O)O)NC(=O)[C@H]([C@@H](C)c3cccc4ccccc34)NC(=O)[C@@H]3C[C@@H](N)CN3C(=O)CNC(=O)[C@H](Cc3ccc(C(=O)O)cc3)NC(=O)[C@H](Cc3c[nH]c4ccccc34)NC2=O)cc1` [Example 93] (cyclo([AEF](Ac)W[Phe(4-COOH)]G[Pro(4R-NH2)][1Nal(3S-Me)]D[dNMeA]G[Bip(4'-COOH)][1Nal][Dab][Aib][hTyr])) as the compound, how does the IC50 read?
Answer: Its IC50 is 0.12 nM.

Question: Which IC50 does the source give for `C[C@@H]1C(=O)NCC(=O)N[C@@H](Cc2ccc(-c3ccc(C(=O)O)cc3)cc2)C(=O)N[C@@H](Cc2cccc3ccccc23)C(=O)N[C@@H](CCCN)C(=O)NC(C)(C)C(=O)NCC(=O)N[C@@H](Cc2ccc(-c3ccc(C(=O)O)cc3)cc2)C(=O)N[C@@H](Cc2c[nH]c3ccccc23)C(=O)N[C@@H](Cc2ccc(C(=O)O)cc2)C(=O)NCC(=O)N2C[C@H](N)C[C@H]2C(=O)N[C@@H]([C@@H](C)c2cccc3ccccc23)C(=O)N[C@@H](CC(=O)O)C(=O)N1C` [Example 20] (cyclo([Bip(4'-COOH)]W[Phe(4-COOH)]G[Pro(4R-NH2)][1Nal(3S-Me)]D[dNMeA]G[Bip(4'-COOH)][1Nal][Orn][Aib]G)) here?
Answer: Its IC50 is 0.44 nM.

Question: How did the IC50 turn out when `CC(=O)NCCOc1ccc(C[C@@H]2NC(=O)[C@H](CCc3cncc(C#N)c3)NC(=O)[C@@H](CCN)NC(=O)CNC(=O)[C@H](CN3CCc4ccccc43)NC(=O)[C@H](Cc3ccc(-c4ccc(C(=O)O)cc4)cc3)NC(=O)CNC(=O)[C@@H](C)N(C)C(=O)[C@H](CC(=O)O)NC(=O)[C@H]([C@@H](C)c3cccc4ccccc34)NC(=O)[C@@H]3C[C@@H](N)CN3C(=O)CNC(=O)[C@H](Cc3ccc(C(=O)O)cc3)NC(=O)[C@H](Cc3c[nH]c4ccccc34)NC2=O)cc1` [Example 91] (cyclo([AEF](Ac)W[Phe(4-COOH)]G[Pro(4R-NH2)][1Nal(3S-Me)]D[dNMeA]G[Bip(4'-COOH)][Ala(indolin-1-yl)]G[dDab][h3Pal(5-CN)])) was run?
Answer: Its IC50 is 0.0234 nM.

Question: For `CC(C)C[C@@H]1NC(=O)[C@H](Cc2cccc(-c3ccccc3)c2)NC(=O)[C@H](Cc2ccc(-c3ccc(C(=O)O)cc3)cc2)NC(=O)CNC(=O)[C@@H](C)N(C)C(=O)[C@H](CC(=O)O)NC(=O)[C@H]([C@@H](C)c2c[nH]c3cccc(F)c23)NC(=O)[C@@H]2C[C@@H](N)CN2C(=O)CNC(=O)[C@H](Cc2ccc(C(=O)O)cc2)NC(=O)[C@H](Cc2c[nH]c3ccccc23)NC(=O)[C@H](Cc2ccc(-c3ccc(C(=O)O)cc3)cc2)NC(=O)[C@H](CCc2ccc(O)cc2)NC(=O)[C@@H](C)NC1=O` [Example 75] (cyclo([Bip(4'-COOH)]W[Phe(4-COOH)]G[Pro(4R-NH2)][Trp(βS-Me,4-F)]D[dNMeA]G[Bip(4'-COOH)][Phe(3-Ph)]L[dA][hTyr])), which IC50 is on record?
Answer: The IC50 was 0.165 nM.

Question: For `C[C@@H]1C(=O)NCC(=O)N[C@@H](Cc2ccc(-c3ccc(C(=O)O)cc3)cc2)C(=O)N[C@@H](Cc2ccc(N)cc2)C(=O)N[C@@H](CO)C(=O)N[C@H](C)C(=O)N[C@@H](CCc2ccc(O)cc2)C(=O)N[C@@H](Cc2ccc(-c3ccc(C(=O)O)cc3)cc2)C(=O)N[C@@H](Cc2c[nH]c3ccccc23)C(=O)N[C@@H](Cc2ccc(C(=O)O)cc2)C(=O)NCC(=O)N2C[C@H](N)C[C@H]2C(=O)N[C@@H]([C@@H](C)c2c[nH]c3cccc(Cl)c23)C(=O)N[C@@H](CC(=O)O)C(=O)N1C` [Example 52] (cyclo([Bip(4'-COOH)]W[Phe(4-COOH)]G[Pro(4R-NH2)][Trp(4-Cl)(βS-Me)]D[dNMeA]G[Bip(4'-COOH)][Phe(4-NH2)]S[dA][hTyr])), which IC50 is on record?
Answer: The IC50 was 0.454 nM.

same assay, conditions: inhibition of IL-1β induced IL-6 secretion in MRC5 cells; read-out: MRC5 IC50

Question: For `C[C@@H]1C(=O)NCC(=O)N[C@@H](Cc2ccc(-c3ccc(C(=O)O)cc3)cc2)C(=O)N[C@@H](Cc2ccncc2)C(=O)N[C@@H](CO)C(=O)N[C@H](CCN)C(=O)N[C@@H](CCC2CCCCC2)C(=O)N[C@@H](Cc2ccc([C@H]3CC[C@H](C(=O)O)CC3)cc2)C(=O)N[C@@H](Cc2c[nH]c3cc(F)ccc23)C(=O)N[C@@H](Cc2ccc(C(=O)O)cc2)C(=O)NCC(=O)N2C[C@H](N)C[C@H]2C(=O)N[C@@H]([C@@H](C)c2cccc3ccccc23)C(=O)N[C@@H](CC(=O)O)C(=O)N1C` [Example 193] (cyclo([Phe(4-(trans-4-COOH-cHex))][Trp(6-F)][Phe(4-COOH)]G[Pro(4R-NH2)][1Nal(3S-Me)]D[dNMeA]G[Bip(4'-COOH)][4Pal]S[dDab][hCha])), which IC50 is on record?
Answer: Its IC50 is 0.012 nM.
